According to publication PMC12148948, “Targeting enabled homolog with daunorubicin inhibits ERK1/2/c‐Fos pathway and suppresses hepatocellular carcinoma progression” (Clinical and Translational Medicine, 2025):

Biological target: T1, enabled homolog (ENAH) (Homo sapiens, UniProt Q8N8S7)
T1 sequence (Q8N8S7 1-591): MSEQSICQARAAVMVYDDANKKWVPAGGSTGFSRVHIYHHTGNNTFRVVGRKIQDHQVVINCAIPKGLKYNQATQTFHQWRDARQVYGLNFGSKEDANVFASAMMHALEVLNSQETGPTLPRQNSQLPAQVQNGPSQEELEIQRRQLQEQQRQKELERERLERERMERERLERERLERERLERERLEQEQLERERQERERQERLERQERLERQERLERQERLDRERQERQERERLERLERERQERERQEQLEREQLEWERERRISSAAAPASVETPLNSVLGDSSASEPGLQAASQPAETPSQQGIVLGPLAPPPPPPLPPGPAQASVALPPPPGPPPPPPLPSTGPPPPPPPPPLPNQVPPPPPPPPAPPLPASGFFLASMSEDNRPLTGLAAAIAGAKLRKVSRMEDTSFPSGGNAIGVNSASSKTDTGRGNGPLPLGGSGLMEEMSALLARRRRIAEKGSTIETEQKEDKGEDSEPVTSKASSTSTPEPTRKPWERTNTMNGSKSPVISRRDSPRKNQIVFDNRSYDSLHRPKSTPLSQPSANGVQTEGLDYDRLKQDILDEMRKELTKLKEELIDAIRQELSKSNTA
Assay: CETSA in HCCLM3 cells ([…] daunorubicin), western blot
Format: cell-based

COc1cccc2c1C(=O)c1c(O)c3c(c(O)c1C2=O)C[C@@](O)(C(C)=O)C[C@@H]3O[C@H]1C[C@H](N)[C@H](O)[C@H](C)O1 [compound 11, daunorubicin]
CETSA in HCCLM3 cells (1 μM daunorubicin), western blot: The interaction between ENAH and daunorubicin was confirmed by the cellular thermal shift assay (CETSA)
